Data on ten compounds can be found in ChEMBL document CHEMBL4840353, “Investigation on the solid-phase synthesis of silybin prodrugs and their timed-release” (Bioorg Med Chem, 2021).

Each structure is given as a SMILES string. Values after ≈ are worked out from the molar mass of the structure shown. A value given as a limit tells only on which side of the number the result lay.

By EC50 is commonly meant the concentration needed to bring the measured effect to its halfway point. As a reminder, the half-life is the time needed for the level to fall by half in the phase considered. By solubility is commonly meant the dissolved amount per volume that the medium holds.

The nature of series [1]: Antioxidant activity assessed as DPPH radical scavenging activity measured for 60 mins by spectrophotometric analysis. It counts as functional. A general note: The DPPH test is a chemical assay of radical scavenging.
The subject of another series is SH-SY5Y. The series can be described thus: Cytotoxicity against human differentiated SH-SY5Y cells assessed as reduction in cell viability at 2 to 50 uM measured after 48 hrs by MTT assay. The class given is cell-based. Particulars: dose 2-50 µM.
A short description of series [2]: Prodrug conversion assessed as RNase (unknown origin)-mediated drug release by measuring half life in simulated intestinal fluid at 1 mM by UV/Vis detector based HPLC analysis. The class given is ADME. As to conditions: human, simulated gi fluid, 1000 µM.
A short description of series [3]: Stability in simulated intestinal fluid at pH 6.8 assessed as half life at 1 mM by HPLC analysis. The class given is ADME.
Series [4] is described as follows: Stability in simulated gastric fluid at pH 1.1 assessed as drug degradation at 1 mM measured after 24 hrs by HPLC analysis. It counts as ADME. As to conditions: read-out: Drug degradation.
Series [5] is described as follows: Aqueous solubility of the compound. The class given is physicochemical. As to conditions: buffer.
Series [6] in a line: Stability in alkaline phosphatase buffer at pH 7.4 assessed as drug degradation at 1 mM measured after 48 hrs by HPLC analysis. It counts as ADME. Particulars: read-out: Drug degradation.
Series [7] in a line: Prodrug conversion assessed as RNase (unknown origin) -mediated drug release by measuring half life in imidazole buffer at 1 mM by UV/Vis detector based HPLC analysis. The class given is ADME. Particulars: human, 1000 µM.

Regarding `COc1cc([C@H]2Oc3cc([C@H]4Oc5cc(O)cc(O)c5C(=O)[C@@H]4O)ccc3O[C@@H]2CO)ccc1O` [SILYBIN A], the EC50 in series [1] is 360 µM. In addition, the Activity entry in the series on SH-SY5Y is “Non-Toxic”.

Take `Cc1c(C)c2c(c(C)c1O)CCC(C)(C(=O)O)O2` (stereo not given) [TROLOX]: in series [1], the EC50 is 28 µM.

`COc1cc([C@@H]2Oc3cc([C@H]4Oc5cc(O)cc(O)c5C(=O)[C@@H]4O)ccc3O[C@H]2COP(=O)(O)O[C@H]2[C@@H](O)[C@H](n3ccc(=O)[nH]c3=O)O[C@@H]2CO)ccc1O`: the t1/2 in series [2] was 11 h; in series [7], 0.833 h. The concentration for a half-maximal effect (EC50) in series [1] stood at 530 µM. Besides, in series [3], the half-life at 1000 µM is greater than 24 h. In addition, the degraded at 24 h, 1000 µM in series [4] is 27%. Further, the solubility entry in series [5] is listed as “Soluble”. Further, the degraded at 48 h, 1000 µM in series [6] was less than 2%. Besides, the Activity entry with SH-SY5Y was “Non-Toxic”.

Regarding `COc1cc([C@@H]2Oc3cc([C@H]4Oc5cc(O)cc(O)c5C(=O)[C@@H]4O)ccc3O[C@H]2COP(=O)(O)O[C@H]2[C@@H](O)[C@H](n3cnc4c(N)ncnc43)O[C@@H]2CO)ccc1O`, the t1/2 in series [2] and in series [7] was greater than 48 h throughout. Moreover, in series [1], the EC50 was determined as 580 µM. Besides, the half-life at 1000 µM in series [3] was greater than 24 h. Besides, the degraded at 24 h, 1000 µM in series [4] was less than 5%. In addition, the solubility entry in series [5] is given as “Soluble”. The degraded at 48 h, 1000 µM in series [6] was less than 2%. In addition, the Activity result in the series with SH-SY5Y is on record as “Non-Toxic”.

`COc1cc([C@H]2Oc3cc([C@H]4Oc5cc(O)cc(O)c5C(=O)[C@@H]4O)ccc3O[C@@H]2COP(=O)(O)O[C@H]2[C@@H](O)[C@H](n3ccc(=O)[nH]c3=O)O[C@@H]2CO)ccc1O`: the t1/2 is 13 h in series [2] and 1.45 h in series [7]. In addition, the EC50 in series [1] is 570 µM. Moreover, the half-life at 1000 µM in series [3] is greater than 24 h. In addition, the degraded at 24 h, 1000 µM in series [4] was 27%. The solubility entry in series [5] was “Soluble”. Also, in series [6], the degraded at 48 h, 1000 µM is less than 2%. In addition, in the series on SH-SY5Y, the Activity entry was “Non-Toxic”.

As to `COc1cc([C@@H]2Oc3cc([C@H]4Oc5cc(O)cc(O)c5C(=O)[C@@H]4O)ccc3O[C@H]2CO)ccc1O` [SILYBIN B], the EC50 in series [1] worked out at 580 µM. Besides, in the series on SH-SY5Y, the Activity result is recorded as “Non-Toxic”.

For `COc1cc(C2Oc3cc([C@H]4Oc5cc(O)cc(O)c5C(=O)[C@@H]4O)ccc3OC2CO)ccc1O` (stereo not given in full) [SILIBININ], the EC50 in series [1] was 620 µM. For the same compound, in series [5] (read-out: solubility), the solubility is 1 µM (≈ 0.482 µg/mL).

For the compound `COc1cc(C2Oc3cc([C@H]4Oc5cc(O)cc(O)c5C(=O)[C@@H]4O)ccc3OC2COP(=O)(O)O[C@H]2[C@@H](O)[C@H](n3ccc(=O)[nH]c3=O)O[C@@H]2CO)ccc1O` (stereo not given in full), the values for the t1/2 in series [2] and in series [7] were 20 h and 1.67 h, respectively. In addition, in series [1], the 50% effective concentration (EC50) amounted to 490 µM. Also, the half-life at 1000 µM in series [3] is greater than 24 h. Moreover, the degraded at 24 h, 1000 µM in series [4] is 27%. The solubility entry in series [5] was “Soluble”. For the same compound, the degraded at 48 h, 1000 µM in series [6] is less than 2%. For the same compound, the Activity entry in the series with SH-SY5Y is recorded as “Non-Toxic”.

As for `COc1cc(C2Oc3cc([C@H]4Oc5cc(O)cc(O)c5C(=O)[C@@H]4O)ccc3OC2COP(=O)(O)O[C@H]2[C@@H](O)[C@H](n3cnc4c(N)ncnc43)O[C@@H]2CO)ccc1O` (stereo not given in full), the t1/2 in series [2] and in series [7] was greater than 48 h throughout. Also, the EC50 in series [1] came out at 620 µM. Besides, the half-life at 1000 µM in series [3] is greater than 24 h. The degraded at 24 h, 1000 µM in series [4] was less than 5%. Moreover, the solubility result in series [5] is “Soluble”. Besides, in series [6], the degraded at 48 h, 1000 µM is less than 2%. Also, in the series on SH-SY5Y, the Activity entry is recorded as “Non-Toxic”.

For the compound `COc1cc([C@H]2Oc3cc([C@H]4Oc5cc(O)cc(O)c5C(=O)[C@@H]4O)ccc3O[C@@H]2COP(=O)(O)O[C@H]2[C@@H](O)[C@H](n3cnc4c(N)ncnc43)O[C@@H]2CO)ccc1O`, the t1/2 in series [2] and in series [7] was greater than 48 h each time. In addition, the EC50 in series [1] was found to be 630 µM. Also, in series [3], the half-life at 1000 µM is greater than 24 h. Besides, the degraded at 24 h, 1000 µM in series [4] was less than 5%. Further, in series [5], the solubility result is “Soluble”. The degraded at 48 h, 1000 µM in series [6] is less than 2%. Also, in the series on SH-SY5Y, the Activity result is “Non-Toxic”.
